Tested on: CRL 1730 HUVECs
Assay: Microarray transcriptomics of HUVEC (HGERT/HG, HG/NG)
Format: cell-based, human
[1] = Atherosclerosis, ATP binding and metabolism
[2] = Atherosclerosis, Cysteine/gluathione
[3] = Atherosclerosis, Cytokine activity
[4] = Atherosclerosis, Endothelial cell related
[5] = Atherosclerosis, Heat shock protein
[6] = Atherosclerosis, NF-kappaB transcription
[7] = Atherosclerosis, Nitric oxide synthase activity
[8] = Atherosclerosis, Peptidase activity
[9] = Atherosclerosis, Plasminogen activators
[10] = Atherosclerosis, Reactive oxygen species

OC[C@@H](O)[C@@H](O)CO [ERT, meso-1,2,3,4-tetrahydroxybutane]
HGERT/HG ABCB10 (ATP-binding cassette, sub-family B (MDR/TAP), member 10) [1]: 0.98 Ω
HGERT/HG ACTL6A (Actin-like 6A) [1]: 0.98 Ω
HGERT/HG ACTR5 (ARP5 actin-related protein 5 homolog (yeast)) [1]: Ψ 1.01
HGERT/HG ATAD1 (ATPase family, AAA domain containing 1) [1]: 0.99 Ω
HGERT/HG ATAD3B (ATPase family, AAA domain containing 3B) [1]: Ψ 1.01
HGERT/HG ATP2C1 (ATPase, Ca++ transporting, type 2C, member 1) [1]: 0.99 Ω
HGERT/HG ATP5E (ATP synthase, H+ transporting, mitochondrial F1 complex, epsilon subunit) [1]: 0.98 Ω
HGERT/HG ATP5O (ATP synthase, H+ transporting, mitochondrial Fl complex, O subunit) [1]: 1.00 Ω
HGERT/HG ATP13A1 (ATPase type 13A1) [1]: Ψ 1.02
HGERT/HG C3orf26 (Chromosome 3 open reading frame 26) [1]: 0.99 Ω
HGERT/HG CARS (Cysteinyl-tRNA synthetase) [1]: 1.00 Ω
HGERT/HG CSNK1G1 (Casein kinase 1, gamma 1) [1]: Ψ 1.02
HGERT/HG DCAKD (Dephospho-CoA kinase domain containing) [1]: Ψ 1.03
HGERT/HG DDX54 (DEAD (Asp-Glu-Ala-Asp) box, polypeptide 54) [1]: 0.99 Ω
HGERT/HG FASTKD1 (FAST kinase domains 1) [1]: 0.99 Ω
HGERT/HG FASTKD3 (FAST kinase domains 3) [1]: 0.99 Ω
HGERT/HG HLTF (Helicase-like transcription factor) [1]: 0.99 Ω
HGERT/HG HSPE1 (Heat shock 10kDa protein 1 (chaperonin 10)) [1]: 0.99 Ω
HGERT/HG KIF1B (Kinesin family member 1B) [1]: Ψ 1.01
HGERT/HG LIMK1 (LIM domain kinase 1) [1]: Ψ 1.01
HGERT/HG LVN (V-yes-1 Yamaguchi sarcoma viral related oncogene homolog) [1]: Ψ 1.02
HGERT/HG MAP4K3 (Mitogen-activated protein kinase kinase kinase kinase 3) [1]: 0.98 Ω
HGERT/HG MARK2 (MAP/microtubule affinity-regulating kinase 2) [1]: Ψ 1.03
HGERT/HG RP2 (Retinitis pigmentosa 2 (X-linked recessive)) [1]: 0.99 Ω
HGERT/HG RPS6KA2 (Ribosomal protein S6 kinase, 90kDa, polypeptide 2) [1]: Ψ 1.01
HGERT/HG SLK (STE20-like kinase) [1]: 0.99 Ω
HGERT/HG STK39 (Serine threonine kinase 39) [1]: 0.98 Ω
HGERT/HG SUCLA2 (Succinate-CoA ligase, ADP-forming, beta subunit) [1]: 0.99 Ω
HGERT/HG TRIT1 (TRNA isopentenyltransferase 1) [1]: 0.98 Ω
HGERT/HG VPS4B (Vacuolar protein sorting 4 homolog B (S. cerevisiae)) [1]: 0.99 Ω
HGERT/HG YME1L1 (YME1-like 1 (S. cerevisiae)) [1]: 1.00 Ω
HGERT/HG CORO1A (Coronin, actin binding protein, 1A) (Atherosclerosis, Actin binding): 0.94 Ω
HGERT/HG PLEC1 (Plectin) (Atherosclerosis, Actin binding): Ψ 1.03
HGERT/HG AHCYL1 (Adenosylhomocysteinase-like 1) [2]: Ψ 1.01
HGERT/HG ATIC (5-aminoimidazole-4-carboxamide ribonucleotide formyltransferase/IMP cyclohydrolase) [2]: 0.99 Ω
HGERT/HG ESD (Esterase D) [2]: 0.99 Ω
HGERT/HG BMP6 (Bone morphogenetic protein 6) [3]: Ψ 1.01
HGERT/HG IL13RA1 (Interleukin 13 receptor, alpha 1) [3]: Ψ 1.02
HGERT/HG IL17D (Interleukin 17D) [3]: 0.98 Ω
HGERT/HG ENG (Endoglin) [4]: Ψ 1.01
HGERT/HG FOXC1 (Forkhead box C1) [4]: Ψ 1.01
HGERT/HG GPR124 (G protein-coupled receptor 124) [4]: Ψ 1.02
HGERT/HG HIG2 (Chromosome 7 open reading frame 68) [4]: Ψ 1.01
HGERT/HG JUP (Junction plakoglobin) [4]: Ψ 1.01
HGERT/HG KRIT1 (KRIT1, ankyrin repeat containing) [4]: 0.99 Ω
HGERT/HG NOTCH1 (Notch 1) [4]: Ψ 1.02
HGERT/HG JUP (Junction plakoglobin) (Atherosclerosis, Endothelial cell-cell adhesion): Ψ 1.01
HGERT/HG DNAJC8 (DnaJ (Hsp40) homolog, subfamily C, member 8) [5]: 0.99 Ω
HGERT/HG DNAJC11 (DnaJ (Hsp40) homolog, subfamily C, member 11) [5]: Ψ 1.01
HGERT/HG COMMD7 (COMM domain containing 7) [6]: 0.99 Ω
HGERT/HG NDFIP2 (Nedd4 family interacting protein 2) [6]: 0.99 Ω
HGERT/HG PTPLAD1 (Protein tyrosine phosphatase-like A domain containing 1) [6]: Ψ 1.01
HGERT/HG TP53BP2 (Tumor protein p53 binding protein, 2) [6]: Ψ 1.01
HGERT/HG ACVR2A (Activin A receptor, type IIA) [7]: 0.99 Ω
HGERT/HG ENG (Endoglin) [7]: Ψ 1.01
HGERT/HG HIG2 (Chromosome 7 open reading frame 68) [7]: Ψ 1.01
HGERT/HG OSTM1 (Osteopetrosis associated transmembrane protein 1) (Atherosclerosis, Osteoclast differentiation): 0.99 Ω
HGERT/HG ATXN3 (Ataxin 3) [8]: 0.99 Ω
HGERT/HG OTUD5 (OTU domain containing 5) [8]: Ψ 1.01
HGERT/HG SENP3 (SUMO1/sentrin/SMT3 specific peptidase 3) [8]: Ψ 1.01
HGERT/HG WFDC12 (WAP four-disulfide core domain 12) [8]: 0.96 Ω
HGERT/HG PLSCR4 (Phospholipid scramblase 4) (Atherosclerosis, Phospholipid scramblase): 0.99 Ω
HGERT/HG BRD2 (Bromodomain containing 2) [9]: Ψ 1.02
HGERT/HG RHOJ (Ras homolog gene family, member J) [9]: Ψ 1.02
HGERT/HG COX8A (Cytochrome c oxidase subunit VIIIA (ubiquitous)) [10]: 0.99 Ω
HGERT/HG JUP (Junction plakoglobin) [10]: Ψ 1.01
HGERT/HG MPHOSPH6 (M-phase phosphoprotein 6) [10]: 0.99 Ω
HGERT/HG SDHD (Succinate dehydrogenase complex, subunit D, integral membrane protein) [10]: 0.98 Ω
HGERT/HG SMOX (Spermine oxidase) [10]: 0.99 Ω
HGERT/HG SOS1 (Son of sevenless homolog 1 (Drosophila)) [10]: Ψ 1.06
HGERT/HG TCF12 (Transcription factor 12) [10]: 0.99 Ω
HGERT/HG TGM2 (Transglutaminase 2 (C polypeptide, protein-glutamine-gamma-glutamyltransferase)) [10]: Ψ 1.01
HGERT/HG PGRMC2 (Progesterone receptor membrane component 2) (Atherosclerosis, Steroid hormone receptor activity): 0.98 Ω
HGERT/HG ABCB10 (ATP-binding cassette, sub-family B (MDR/TAP), member 10) (Breast cancer, ATP metabolism): 0.98 Ω
HGERT/HG ACTL6A (Actin like 6A) (Breast cancer, ATP metabolism): 0.98 Ω
HGERT/HG ACTR5 (ARP5 actin-related protein 5 homolog (yeast)) (Breast cancer, ATP metabolism): Ψ 1.01
HGERT/HG ATAD1 (ATPase family, AAA domain containing 1) (Breast cancer, ATP metabolism): 0.99 Ω
HGERT/HG ATAD38 (ATPase family, AAA domain containing 38) (Breast cancer, ATP metabolism): Ψ 1.01
HGERT/HG ATP2C1 (ATPase, Ca++ transporting, type 2C, member 1) (Breast cancer, ATP metabolism): 0.99 Ω
HGERT/HG ATP5E (ATP synthase, H+ transporting, mitochondrial F1 complex, epsilon subunit) (Breast cancer, ATP metabolism): 0.99 Ω
HGERT/HG ATP5O (ATP synthase, H+ transporting, mitochondrial F1 complex, O subunite) (Breast cancer, ATP metabolism): Ψ 1.00
HGERT/HG ATP13A1 (ATPase type 13A1) (Breast cancer, ATP metabolism): Ψ 1.02
HGERT/HG C3orf26 (Chromosome 3 open reading frame 26) (Breast cancer, ATP metabolism): 0.99 Ω
HGERT/HG CARS (Cysteinyl-tRNA synthetase) (Breast cancer, ATP metabolism): 1.00 Ω
HGERT/HG CSNK1G1 (Casein kinase 1, gamma 1) (Breast cancer, ATP metabolism): Ψ 1.02
HGERT/HG DCAKO (Dephospho-CoA kinase domain containing) (Breast cancer, ATP metabolism): Ψ 1.03
HGERT/HG DDX54 (DEAD (Asp-Glu-Ala-Asp) box, polypeptide 54) (Breast cancer, ATP metabolism): 0.99 Ω
HGERT/HG FASTDK1 (FAST kinase domains 1) (Breast cancer, ATP metabolism): 0.99 Ω
HGERT/HG FASTKD3 (FAST kinase domains 1) (Breast cancer, ATP metabolism): 0.99 Ω
HGERT/HG HLTF (Helicase-like transcription factor) (Breast cancer, ATP metabolism): 0.99 Ω
HGERT/HG HSPE1 (Heat shock 10kDa protein 1 (chaperonin 10)) (Breast cancer, ATP metabolism): 0.99 Ω
HGERT/HG KF1B (Kinesin family member 1B) (Breast cancer, ATP metabolism): Ψ 1.01
HGERT/HG LIMK1 (LIM domain kinase 1) (Breast cancer, ATP metabolism): Ψ 1.01
HGERT/HG LYN (V-yes-1 Yamaguchi sarcoma viral related oncogene homolog) (Breast cancer, ATP metabolism): Ψ 1.02
HGERT/HG MAP4K3 (Mitogen-activated protein kinase kinase kinase kinase 3) (Breast cancer, ATP metabolism): 0.98 Ω
HGERT/HG RP2 (Retinitis pigmentosa 2 (X-linked recessive)) (Breast cancer, ATP metabolism): 0.98 Ω
HGERT/HG SLK (STE20-like kinase) (Breast cancer, ATP metabolism): 0.99 Ω
HGERT/HG STK39 (Serine threonine kinase 39) (Breast cancer, ATP metabolism): 0.98 Ω
HGERT/HG SUCLA2 (Succinate-CoA ligase, ADP-forming, beta subunit) (Breast cancer, ATP metabolism): 0.99 Ω

Reference: US20150104868A1, “Methods of Maintaining and Improving Biological Cell Function and Activity” (GARGILL INCORPORATED, priority 2012, published 2015)
